Values quoted from earlier work in US20040014215A1, “Synchronised arabidopsis cell suspensions and uses thereof” (priority 2000, published 2004).

How the values were obtained:
[1] = system: Arabidopsis cell suspension cultures; details: low concentration of cycloheximide, release by washing; cited from earlier work
cell cycle = details: phase of the cell cycle at which cells are arrested; cited from earlier work
[2] = system: plant cells derived from a petunia protoplast culture; details: cited from earlier work
tobacco BY-2 cell line = details: BY-2 pre-synchronised with aphidicolin, then propyzamide for a few hours and removal; cited from earlier work
[3] = system: purified CDK/cyclin complexes; details: cited from earlier work

In the case of `C[C@@H]1C[C@@H]([C@H](O)CC2CC(=O)NC(=O)C2)C(=O)[C@@H](C)C1` [cycloheximide], the peak mitotic index [1] is given as 9%.

For `NC(=O)NO` [hydroxyurea], the cell cycle arrest (cell cycle) is given as “G1/S phase boundary”.

For `NC(Cn1ccc(=O)c(O)c1)C(=O)O` (stereo not drawn) [mimosine], the cell cycle arrest (cell cycle) is given as “early S” and the cell cycle block [2] is given as “reversible block during G1 and in early/mid S-phase”.

In the case of `C#CC(C)(C)NC(=O)c1cc(Cl)cc(Cl)c1` [propyzamide], the mitotic index (tobacco BY-2 cell line) is given as 80-90%.

For `CC[C@H](CO)Nc1nc(NCc2ccccc2)c2ncn(C(C)C)c2n1` [roscovitine], the “histone H1 kinase activity” value [3] is listed as “inhibit the histone H1 kinase activity”.
